Data from US11214803B2, “Modulators of YAP1 expression” (Ionis Pharmaceuticals, Inc., priority 2019, dated 2022).
Strand notation (5' to 3'): a small letter for the sugar, then the base; units joined by * are phosphorothioate-linked, units joined directly phosphodiester-linked; [ ] holds rarer units or linkages, { } end groups; capitals alone tell only the bases. k = constrained ethyl (cEt); [5mC] = 5-methylcytosine; d = 2'-deoxy (DNA)

Assays:
Yap1 mRNA = assay: Dose-dependent inhibition of human Yap1 in A-431 cells (Example 6, 5,000 cells per well, RTS4814); format: cell-based; conditions: for % UTC 148 nM / % UTC 444 nM / % UTC 1333 nM / % UTC 4000 nM: approximately 48 hours; for Yap1 mRNA, % UTC: 48 hours
Description: Modified oligonucleotides described in the studies above were tested at various doses in A-431 cells. Cultured A-431 cells at a density of 5,000 cells per well were treated using free uptake with modified oligonucleotides diluted to concentrations described in the tables below. After approximately 48 hours, Yap1 mRNA levels were measured as previously described using the Human Yap1 primer-probe set RTS4814. Yap1 mRNA levels were normalized to total RNA content, as measured by RIBOGREEN®. Results are presented in the tables below as percent control of the amount of Yap1 mRNA relative to untreated control cells (% UTC). IC50s were calculated using a linear regression on a log/linear plot of the data in excel.

[1] = Tolerability in Balb/c mice, plasma chemistry markers (Example 10); format: in vivo; conditions: male Balb/c mice, 50 mg/kg subcutaneously twice a week for four weeks, day 26
Description: (§1) Balb/c mice were treated with modified oligonucleotides selected from studies described above and evaluated for changes in the levels of various plasma chemistry markers.
(§2) Groups of male Balb/c mice at 4-6 weeks of age (obtained from Taconic) were injected subcutaneously twice a week for four weeks (for a total of 8 treatments) with 50 mg/kg of modified oligonucleotides. One group of male Balb/c mice was injected with PBS. Mice were euthanized on day 26 post start of treatment (24 hours following the final administration).

[2] = Tolerability in Balb/c mice, body and organ weights (Example 10); format: in vivo; conditions: 50 mg/kg subcutaneously twice a week for four weeks, end of study
Description: as §2
(§3) Body weights of Balb/c mice were measured at the end of the study, and the average body weight for each group is presented in the table below. Modified oligonucleotides that caused any changes in organ weights outside the expected range for modified oligonucleotides were excluded from further studies.

[3] = Tolerability in Balb/c mice, plasma chemistry markers (Example 11); format: in vivo; conditions: 50 mg/kg subcutaneously twice a week for four weeks
Description: as §1, §2

[4] = Tolerability in Balb/c mice, body and organ weights (Example 11); format: in vivo; conditions: 50 mg/kg subcutaneously twice a week for four weeks, end of study
Description: as §2, §3

[5] = Table 54, A-431 cells, Yap1 mRNA, linear regression on a log/linear plot
[6] = Table 54, A-431 cells, free uptake, 148 nM, RTS4814
[7] = Table 54, A-431 cells, free uptake, 444 nM, RTS4814
[8] = Table 54, A-431 cells, free uptake, 1333 nM, RTS4814
[9] = Table 54, A-431 cells, free uptake, 4000 nM, RTS4814
[10] = Table 53, A-431 cells, Yap1 mRNA, linear regression on a log/linear plot
[11] = Table 53, A-431 cells, free uptake, 148 nM, RTS4814
[12] = Table 53, A-431 cells, free uptake, 444 nM, RTS4814
[13] = Table 53, A-431 cells, free uptake, 1333 nM, RTS4814
[14] = Table 53, A-431 cells, free uptake, 4000 nM, RTS4814
[15] = Table 55, 148 nM, free uptake, A-431 cells 5,000 cells per well, RTS4814
[16] = Table 55, 444 nM, free uptake, A-431 cells 5,000 cells per well, RTS4814
[17] = Table 55, 1333 nM, free uptake, A-431 cells 5,000 cells per well, RTS4814
[18] = Table 55, 4000 nM, free uptake, A-431 cells 5,000 cells per well, RTS4814
[19] = Table 55, A-431 cells 5,000 cells per well, free uptake, RTS4814

| Substance | IC50 (Yap1 mRNA; [5]) | % UTC 148 nM (Yap1 mRNA; [6]) | % UTC 444 nM (Yap1 mRNA; [7]) | % UTC 1333 nM (Yap1 mRNA; [8]) | % UTC 4000 nM (Yap1 mRNA; [9]) | ALT (U/L) [1] | AST (U/L) [1] | TBIL [1] | Kidney weight [2] | Liver weight [2] | Spleen weight [2] | body weight [2] | ALT [3] | AST [3] | BUN [3] | TBIL [3] | Kidney weight [4] | Liver weight [4] | Spleen weight [4] | body weight [4] | also measured |
| --- | --- | --- | --- | --- | --- | --- | --- | --- | --- | --- | --- | --- | --- | --- | --- | --- | --- | --- | --- | --- | --- |
| 715558 (k[5mC]*kA*kG*dG*dA*dA*dG*dT*dT*dA*dT*dT*d[5mC]*kA*kG*k[5mC]; antisense) [compound 715558] | > 4000 nM | 94 % UTC | 112 % UTC | 80 % UTC | 66 % UTC | 65 U/L | 91 U/L | 0.16 mg/dL | 0.38 g | 1.33 g | 0.12 g | 22 g | – | – | – | – | – | – | – | – | – |
| 715557 (kG*kG*kA*dA*dG*dT*dT*dA*dT*dT*d[5mC]*dA*dG*k[5mC]*kA*kG; antisense) [compound 715557] | – | – | – | – | – | 1755 U/L | 2377 U/L | 0.28 mg/dL | 0.31 g | 1.96 g | 0.12 g | 21 g | – | – | – | – | – | – | – | – | – |
| 715415 (k[5mC]*kG*kA*dA*d[5mC]*dA*dT*dG*d[5mC]*dT*dG*dT*dG*kG*kA*kG; antisense) [compound 715415] | – | – | – | – | – | – | – | – | – | – | – | – | 1075 U/L | 701 U/L | 17 mg/dL | 0.14 mg/dL | 0.40 g | 1.79 g | 0.17 g | 25 g | IC50 (Yap1 mRNA; [10]): 1800 nM; % UTC 148 nM (Yap1 mRNA; [11]): 84 % UTC; % UTC 444 nM (Yap1 mRNA; [12]): 59 % UTC; % UTC 1333 nM (Yap1 mRNA; [13]): 55 % UTC; % UTC 4000 nM (Yap1 mRNA; [14]): 42 % UTC |
| 716455 (antisense kG*kT*kT*dA*dT*dG*dT*dT*dT*dG*dG*dG*dT*kG*kT*kG) [compound 716455] | – | – | – | – | – | – | – | – | – | – | – | – | 1089 U/L | 1193 U/L | 22 mg/dL | 0.25 mg/dL | 0.32 g | 2.66 g | 0.14 g | 21 g | Yap1 mRNA, % UTC (Yap1 mRNA; [15]): 95 % UTC; Yap1 mRNA, % UTC (Yap1 mRNA; [16]): 70 % UTC; Yap1 mRNA, % UTC (Yap1 mRNA; [17]): 49 % UTC; Yap1 mRNA, % UTC (Yap1 mRNA; [18]): 25 % UTC; IC50 (Yap1 mRNA; [19]): 1200 nM |
| 716481 (antisense kT*k[5mC]*kA*dG*d[5mC]*dA*dT*dA*dG*dA*dA*dG*dT*kA*kG*kG) [compound 716481] | 2000 nM | 89 % UTC | 90 % UTC | 58 % UTC | 32 % UTC | – | – | – | – | – | – | – | 1935 U/L | 2248 U/L | 21 mg/dL | 0.46 mg/dL | 0.36 g | 1.99 g | 0.13 g | 22 g | – |
| 715593 (kA*kT*kT*dT*d[5mC]*dT*dT*dT*dG*dG*d[5mC]*dA*dG*kA*kG*kA; antisense) [compound 715593] | – | – | – | – | – | 628 U/L | 610 U/L | 0.11 mg/dL | 0.30 g | 1.12 g | 0.13 g | 19 g | – | – | – | – | – | – | – | – | – |
| 716513 (antisense kA*kA*kT*d[5mC]*dT*dT*dA*dA*dT*d[5mC]*dT*dG*dT*kG*kG*k[5mC]) [compound 716513] | – | – | – | – | – | – | – | – | – | – | – | – | 325 U/L | 229 U/L | 17 mg/dL | 0.14 mg/dL | 0.41 g | 1.59 g | 0.18 g | 25 g | Yap1 mRNA, % UTC (Yap1 mRNA; [15]): 82 % UTC; Yap1 mRNA, % UTC (Yap1 mRNA; [16]): 73 % UTC; Yap1 mRNA, % UTC (Yap1 mRNA; [17]): 39 % UTC; Yap1 mRNA, % UTC (Yap1 mRNA; [18]): 39 % UTC; IC50 (Yap1 mRNA; [19]): 1400 nM |
| 716502 (antisense k[5mC]*kA*k[5mC]*dA*dG*dT*dG*dA*dT*dT*dG*d[5mC]*dA*kT*kT*kT) [compound 716502] | 800 nM | 73 % UTC | 57 % UTC | 45 % UTC | 30 % UTC | – | – | – | – | – | – | – | 2920 U/L | 1329 U/L | 17 mg/dL | 0.27 mg/dL | 0.42 g | 2.18 g | 0.10 g | 23 g | – |
| 715484 (kT*kA*k[5mC]*dT*d[5mC]*dT*dT*dT*dG*dG*dA*dA*dA*k[5mC]*k[5mC]*kA; antisense) [compound 715484] | – | – | – | – | – | 116 U/L | 110 U/L | 0.15 mg/dL | 0.37 g | 1.47 g | 0.13 g | 22 g | – | – | – | – | – | – | – | – | – |
| 716480 (antisense kG*k[5mC]*kA*dA*dG*dT*d[5mC]*dT*dT*dG*dT*dA*dA*kG*kT*kA) [compound 716480] | – | – | – | – | – | – | – | – | – | – | – | – | 2156 U/L | 844 U/L | 19 mg/dL | 0.14 mg/dL | 0.34 g | 2.58 g | 0.10 g | 21 g | Yap1 mRNA, % UTC (Yap1 mRNA; [15]): 80 % UTC; Yap1 mRNA, % UTC (Yap1 mRNA; [16]): 56 % UTC; Yap1 mRNA, % UTC (Yap1 mRNA; [17]): 38 % UTC; Yap1 mRNA, % UTC (Yap1 mRNA; [18]): 39 % UTC; IC50 (Yap1 mRNA; [19]): 1000 nM |
| 715473 (kT*k[5mC]*kT*dT*dT*dA*dT*d[5mC]*dT*dA*dG*d[5mC]*dT*kT*kG*kG; antisense) [compound 715473] | – | – | – | – | – | – | – | – | – | – | – | – | 3046 U/L | 2861 U/L | 20 mg/dL | 2.77 mg/dL | 0.31 g | 1.46 g | 0.09 g | 20 g | IC50 (Yap1 mRNA; [10]): 1300 nM; % UTC 148 nM (Yap1 mRNA; [11]): 89 % UTC; % UTC 444 nM (Yap1 mRNA; [12]): 67 % UTC; % UTC 1333 nM (Yap1 mRNA; [13]): 50 % UTC; % UTC 4000 nM (Yap1 mRNA; [14]): 30 % UTC |
| 715609 (kT*kG*kT*dG*dT*dA*dG*dG*d[5mC]*dT*dG*dA*d[5mC]*kT*kT*kA; antisense) [compound 715609] | – | – | – | – | – | 1120 U/L | 2941 U/L | 0.67 mg/dL | 0.33 g | 2.64 g | 0.10 g | 21 g | – | – | – | – | – | – | – | – | – |
| 715582 (kG*kT*k[5mC]*dA*dA*dG*d[5mC]*d[5mC]*dT*dG*dT*d[5mC]*dT*kG*kG*kA; antisense) [compound 715582] | > 4000 nM | 98 % UTC | 63 % UTC | 93 % UTC | 70 % UTC | 2460 U/L | 2320 U/L | 2.09 mg/dL | 0.38 g | 1.46 g | 0.16 g | 22 g | – | – | – | – | – | – | – | – | – |
| 716424 (antisense kG*k[5mC]*kA*dA*dT*dG*dG*dA*d[5mC]*dA*dA*dG*dG*kA*kA*kG) [compound 716424] | 2000 nM | 76 % UTC | 69 % UTC | 51 % UTC | 44 % UTC | – | – | – | – | – | – | – | 2077 U/L | 1422 U/L | 20 mg/dL | 0.22 mg/dL | 0.36 g | 2.08 g | 0.15 g | 23 g | – |
| 715480 (kG*kG*kA*dA*dA*d[5mC]*d[5mC]*dA*dT*dT*dA*dT*dT*kA*k[5mC]*kT; antisense) [compound 715480] | – | – | – | – | – | 791 U/L | 439 U/L | 0.15 mg/dL | 0.34 g | 1.64 g | 0.12 g | 22 g | – | – | – | – | – | – | – | – | IC50 (Yap1 mRNA; [10]): > 4000 nM; % UTC 148 nM (Yap1 mRNA; [11]): 91 % UTC; % UTC 444 nM (Yap1 mRNA; [12]): 79 % UTC; % UTC 1333 nM (Yap1 mRNA; [13]): 67 % UTC; % UTC 4000 nM (Yap1 mRNA; [14]): 59 % UTC |
